In patent US20130224128A1, “DENTAL CLEANSER COMPOSITION FOR IMPROVING ADHESION TO TEETH” (NANO INTELLIGENT BIOMEDICAL ENGINEERING CO., LTD., priority 2010, published 2013):
Read-outs that look alike come from different tables or passages of the source.

Conditions: surfactant applied for 2 minutes to plates coated with 100 μg/ml LPS, absorbance 620 nm, FIG. 6
Description: To measure the removal of bacterial lipopolysaccharide, a HEK-Blue LPS detection kit (InvivoGen, San Diego, Calif., USA) was used. 24-well plates were coated with 100 μg/ml of an LPS standard (E. coli K12 LPS) and allowed to stand at 4° C. for 8 hours. […] HEK-Blue cells were dispersed in detection media, after which the cells were seeded onto the plates at a density of 4×10^4 cells/well and cultured at 37° C. for 24 hours. The absorbance at a wavelength of 620 nm was measured using a microplate reader (BIO-TEK, Winooski, Vt., USA). The ratio of the remaining LPS standard was calculated using the absorbance of a lipopolysaccharide-free water-coated well as a blank.

Substance	relative ratio of the remaining LPS standard	relative ratio of the remaining LPS standard (listed as octyl phenol ethoxylate)
Tween 20	higher in the order of polyoxyethylene (HLB 10)<Tween 20 (HLB 16)<Span 80 (HLB 4)	–
Sorbitan monooleate [Span 80]	higher in the order of polyoxyethylene (HLB 10)<Tween 20 (HLB 16)<Span 80 (HLB 4)	–
octyl phenol ethoxylate [Triton X-100]	the ratio of the remaining LPS standard was the lowest	has the best effect on the removal of lipopolysaccharide
